Source: patent US9662308B2, “Orally bioavailable pentamidine prodrugs for the treatment of diseases” (Dritte Patentportfolio Beteiligungsgesellschaft mbH & Co. KG, priority 2008, dated 2017)
≈ marks a conversion by molar mass, not a printed value. Where two headings read alike, the source gives them in different places. Each block holds one compound with its values, some of them ahead of it.

Tests used:
[1] = Solubility in 50 mM phosphate buffer (HPLC); settings: for solubility at 20 min: 50 mM phosphate buffer, thermodynamic from solid
Description: […] Subsequently, the undissolved part was removed by centrifugation (12,000 rpm) and the samples were immediately measured by HPLC. The evaluation of the solubility ensued via a calibration of N,N′-bis(succinyloxy)pentamidine (1) in DMSO.
Solubilities were determined analogously to the method described for compound 1.

[2] = tested on: 9000×g supernatants, microsomes and mitochondria of human liver and kidney tissues; format: in vitro ADME; settings: pH 6.3
Description: The activation of the prodrug was determined in vitro by means of subcellular enzyme preparations. 9000×g of supernatants, microsomes and mitochondria of human and porcine liver and kidney tissues were used as the enzyme preparations. The incubation batches were composed of […] prodrug, 1 mM NADH, 1 U esterase and 0.3 mg enzyme preparation dissolved in 150 μ100 mM phosphate buffer, pH 6.3. The incubation took place over 20 min in a shaking water bath at 37° C. The incubation was terminated by adding 150 μl of acetonitrile. The samples were subsequently shaken for 10 min and the precipitated protein was removed by centrifuging at 10,000 RPM for 15 min. The supernatant was measured by means of HPLC.

[3] = Description: Samples were stored at room temperature and 70° C. over a defined period and examined for analyzing the prodrug (1) storage stability. The storage period was 6 months for the room temperature samples, 7 days for the 70° C. samples. The prodrug (1) content was determined by means of HPLC. For this purpose, the samples were dissolved in a mixture of equal parts of methanol and phosphate buffer (20 mM, pH 7.4) and immediately measured. The HPLC method corresponds to the method described under “Characterization of the prodrugs”.
[4] = remark: listed apart in the source
Description: Further analyses were conducted with human and murine plasma. 900 μl of the plasma was mixed with 100 μl of a 2 mM solution of N,N′-bis(succinyloxy)pentamidine (1). The final concentration of N,N′-bis(succinyloxy)pentamidine (1) was thus 0.2 mM. The samples were incubated at 37° C. in a shaking water bath and samples were taken after 0, 15, 30, 45, 60, 75, 90, 105 and 120 min. For this purpose, 100 μl was drawn in each case and mixed with 100 μl acetonitrile. The samples were shaken, centrifuged for 5 min and the supernatant was measured by HPLC.
(§1) The stability analyses were evaluated by means of the following HPLC method: […]

[5] = rat, in vivo
[6] = remark: listed apart in the source
Description: For the stability analyses, a 0.1 mM solution of N,N′-bis(succinyloxy)pentamidine (1) was prepared in a 50 mM potassium phosphate buffer/DMSO (90/10, vol/vol). The analysis took place at pH values of 2.0, 7.4 and 9.0. One sample was taken and immediately analyzed by HPLC every 15 min over a period of 150 min.
as §1

[7] = tested on: leishmania; settings: cited from earlier work
[8] = tested on: plasmodia; settings: cited from earlier work
[9] = tested on: trypanosomes; settings: cited from earlier work

SMILES: CC(=O)ON=C(N)c1ccc(OCCCCCOc2ccc(C(N)=NOC(C)=O)cc2)cc1 [N,N′-bis(acetoxy)pentamidine]
Solubility ([1]; pH 2.0): 14 ± 8 µM (≈ 6.39 µg/mL)
Solubility ([1]; pH 7.4): 2 ± 1 µM (≈ 0.913 µg/mL)
Solubility ([1]; pH 9.0): 3 ± 2 µM (≈ 1.37 µg/mL)

SMILES: NC(=NO)c1ccc(OCCCCCOc2ccc(C(N)=NO)cc2)cc1 [N,N′-bis(dihydroxy)pentamidine]
Solubility ([1]; pH 2.0): >35000 µM
Solubility ([1]; pH 7.4): 95 ± 8 µM (≈ 35.4 µg/mL)
Solubility ([1]; pH 9.0): 21 ± 3 µM (≈ 7.82 µg/mL)

SMILES: N=C(N)c1ccc(OCCCCCOc2ccc(C(=N)N)cc2)cc1 [Pentamidine]
IC50 [7]: 820 to 2590 nM
IC50 [8]: 35 to 129 nM
IC50 [9]: 0.8 to 3.2 nM

Other lines, results leading:

Solubility ([1]; pH 2.0): 1304 ± 28 µM (≈ 522 µg/mL)
Solubility ([1]; pH 7.4): 8 ± 1 µM (≈ 3.2 µg/mL)
Solubility ([1]; pH 9.0): 10 ± 2 µM (≈ 4 µg/mL)
SMILES: CON=C(N)c1ccc(OCCCCCOc2ccc(C(N)=NOC)cc2)cc1 [N,N′-bis(methoxy)pentamidine]

Pentamidine formation (conversion rate) [2]: 0.04 ± 0.01 nmol/min/mg
Solubility [1]: 7500 µM (≈ 4290 µg/mL)
Solubility ([1]; pH 2): hydrolysis
Solubility in acidic medium ([1]; pH 2): in the mM range
Solubility ([1]; pH 7.4): 7500 ± 340 µM (≈ 4290 µg/mL)
Solubility ([1]; pH 9): 10780 ± 70 µM (≈ 6170 µg/mL)
content pentamidine diamidoxime(3) ([3]; 70° C., 0 days): 0.4 ± 0.01% area %
content prodrug (1) ([3]; 70° C., 0 days): 98.4 area %
content succinyloxypentamidin ([3]; 70° C., 0 days): 1.0 ± 0.02% area %
content pentamidine diamidoxime(3) ([3]; 70° C., 1 day): 0.9 ± 0.01% area %
content prodrug (1) ([3]; 70° C., 1 day): 98.0 area %
content succinyloxypentamidin ([3]; 70° C., 1 day): 1.1 ± 0.03% area %
content pentamidine diamidoxime(3) ([3]; 70° C., 2 days): 1.0 ± 0.01% area %
content prodrug (1) ([3]; 70° C., 2 days): 97.6 area %
content succinyloxypentamidin ([3]; 70° C., 2 days): 1.3 ± 0.20% area %
content pentamidine diamidoxime(3) ([3]; 70° C., 4 days): 1.1 ± 0.01% area %
content prodrug (1) ([3]; 70° C., 4 days): 97.9 area %
content succinyloxypentamidin ([3]; 70° C., 4 days): 0.9 ± 0.01% area %
content pentamidine diamidoxime(3) ([3]; 70° C., 7 days): 1.5 ± 0.13% area %
content prodrug (1) ([3]; 70° C., 7 days): 97.4 area %
content succinyloxypentamidin ([3]; 70° C., 7 days): 1.1 ± 0.26% area %
content pentamidine diamidoxime(3) ([3]; room temperature, 0 months): 0.4 ± 0.01% area %
content prodrug (1) ([3]; room temperature, 0 months): 98.4 area %
content succinyloxypentamidine ([3]; room temperature, 0 months): 1.0 ± 0.02% area %
content pentamidine diamidoxime(3) ([3]; room temperature, 0.5 months): 0.5 ± 0.01% area %
content prodrug (1) ([3]; room temperature, 0.5 months): 98.4 area %
content succinyloxypentamidine ([3]; room temperature, 0.5 months): 1.0 ± 0.03% area %
content pentamidine diamidoxime(3) ([3]; room temperature, 1 month): 0.2 ± 0.02% area %
content prodrug (1) ([3]; room temperature, 1 month): 98.6 area %
content succinyloxypentamidine ([3]; room temperature, 1 month): 1.2 ± 0.16% area %
content pentamidine diamidoxime(3) ([3]; room temperature, 2 months): 0.6 ± 0.16% area %
content prodrug (1) ([3]; room temperature, 2 months): 97.5 area %
content succinyloxypentamidine ([3]; room temperature, 2 months): 1.8 ± 0.02% area %
content pentamidine diamidoxime(3) ([3]; room temperature, 3 months): 0.6 ± 0.01% area %
content prodrug (1) ([3]; room temperature, 3 months): 97.5 area %
content succinyloxypentamidine ([3]; room temperature, 3 months): 1.8 ± 0.04% area %
content pentamidine diamidoxime(3) ([3]; room temperature, 6 months): 0.5 ± 0.01% area %
content prodrug (1) ([3]; room temperature, 6 months): 97.8 area %
content succinyloxypentamidine ([3]; room temperature, 6 months): 1.5 ± 0.19% area %
Hydrolysis in plasma [4]: markedly
Relative oral bioavailability [5]: up to 98%
Stability in the neutral and slightly alkaline pH range [6]: stable
Hydrolysis in aqueous medium ([6]; pH 2.0): rapid hydrolysis
Hydrolysis into monosuccinyl pentamidine and pentamidine diamidoxime (3) ([6]; pH 7.4): only to a minor extent
Hydrolysis into monosuccinyl pentamidine and pentamidine diamidoxime (3) ([6]; pH 9.0): only to a minor extent
SMILES: N=C(NOC(=O)CCC(=O)O)c1ccc(OCCCCCOc2ccc(C(=N)NOC(=O)CCC(=O)O)cc2)cc1 [N,N′-bis(succinyloxy)pentamidine (1), 4,4′-Pentamethylendioxy-bis-[N-(carboxypropionyloxy)]benzamidine]

Solubility ([1]; pH 2.0): >35000 µM
Solubility ([1]; pH 7.4): 157 ± 19 µM (≈ 89.6 µg/mL)
Solubility ([1]; pH 9.0): 84 ± 18 µM (≈ 47.9 µg/mL)
SMILES: CC(C)[C@H](N)C(=O)O/N=C(\N)c1ccc(OCCCCCOc2ccc(/C(N)=N/OC(=O)[C@@H](N)C(C)C)cc2)cc1 [N,N′-bis(valoxy)pentamidine]

solubility at 20 min ([1]; pH 2, aqueous buffer): 4210 ± 231 µM (≈ 1570 µg/mL)
solubility at 20 min ([1]; pH 7.4, aqueous buffer): 12 ± 1 µM (≈ 4.47 µg/mL)
solubility at 20 min ([1]; pH 9, aqueous buffer): 4 ± 1 µM (≈ 1.49 µg/mL)
SMILES: N/C(=N\O)c1ccc(OCCCCCOc2ccc(/C(N)=N/O)cc2)cc1 [Pentamidine diamidoxime (3), Pentamidine diamidoxime]

Solubility ([1]; pH 2.0): 22285 ± 1244 µM (≈ 7940 µg/mL)
Solubility ([1]; pH 7.4): 1370 ± 291 µM (≈ 488 µg/mL)
Solubility ([1]; pH 9.0): 1257 ± 40 µM (≈ 448 µg/mL)
SMILES: N=C(N)c1ccc(OCCCCCOc2ccc(C(N)=NO)cc2)cc1 [Pentamidine monoamidoxime]
